Experimental data from patent US12703729B2, “GIP agonist compounds and methods” (Zealand Pharma A/S, priority 2014, dated 2026).
Starred links: 1 amine or outer side, 2 acyl side, 3 side chain; linkers in the order of their positions; H or OH if unused. Non-standard residues stand in square brackets, D forms with d. Residues, ends and D or L forms follow the SMILES beside them. Groups on a side chain read outwards from the residue. *: point of attachment. X1 = O=C(O)CCCCCCCCCCCCCCCCCCC(=O)N1CCN(CC(=O)*)CC1; C20 diacid = O=C(O)CCCCCCCCCCCCCCCCCCC(=O)*; γGlu = O=C(O)[C@H](CCC(=O)[*:2])N[*:1]; AEEA = NCCOCCOCC(=O)O; Aib = CC(C)(N)C(=O)O

Assays:
[1] = male, C57BL/6J, mouse, in vivo
[2] = in vivo; conditions: male, C57BL/6J, mouse; for bioavailability: Bioavailability s.c.; for half-life: 200 nmol/kg
[3] = biological target: T1, human GIP R (Homo sapiens, UniProt P48546); experiment: cell-based
T1 sequence (P48546 22-466): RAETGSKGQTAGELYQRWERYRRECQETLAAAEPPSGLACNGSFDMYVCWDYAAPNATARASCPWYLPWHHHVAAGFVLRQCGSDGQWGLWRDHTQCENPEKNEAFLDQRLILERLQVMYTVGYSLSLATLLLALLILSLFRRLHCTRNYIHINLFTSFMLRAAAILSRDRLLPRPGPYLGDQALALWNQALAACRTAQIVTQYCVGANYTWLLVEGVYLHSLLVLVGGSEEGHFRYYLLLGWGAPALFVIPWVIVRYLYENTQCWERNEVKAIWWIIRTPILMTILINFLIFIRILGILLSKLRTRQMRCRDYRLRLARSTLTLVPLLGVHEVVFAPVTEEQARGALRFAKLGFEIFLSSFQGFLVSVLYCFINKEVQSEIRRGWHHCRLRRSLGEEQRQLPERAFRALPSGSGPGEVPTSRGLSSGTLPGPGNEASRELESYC

[4] = biological target: T2, human GIP receptor (GIP R) (Homo sapiens, UniProt P48546); experiment: Activity assay at human GIP receptor, cAMP induction (AlphaScreen), Example 3
T2 sequence (P48546 22-466): T1 sequence (P48546 22-466)

[5] = biological target: human GLP-1 receptor (GLP-1R) (Homo sapiens, UniProt P43220); experiment: Activity assay at human GLP-1 receptor, cAMP induction (AlphaScreen), Example 3
Sequence of human GLP-1 receptor (GLP-1R) (P43220 24-463): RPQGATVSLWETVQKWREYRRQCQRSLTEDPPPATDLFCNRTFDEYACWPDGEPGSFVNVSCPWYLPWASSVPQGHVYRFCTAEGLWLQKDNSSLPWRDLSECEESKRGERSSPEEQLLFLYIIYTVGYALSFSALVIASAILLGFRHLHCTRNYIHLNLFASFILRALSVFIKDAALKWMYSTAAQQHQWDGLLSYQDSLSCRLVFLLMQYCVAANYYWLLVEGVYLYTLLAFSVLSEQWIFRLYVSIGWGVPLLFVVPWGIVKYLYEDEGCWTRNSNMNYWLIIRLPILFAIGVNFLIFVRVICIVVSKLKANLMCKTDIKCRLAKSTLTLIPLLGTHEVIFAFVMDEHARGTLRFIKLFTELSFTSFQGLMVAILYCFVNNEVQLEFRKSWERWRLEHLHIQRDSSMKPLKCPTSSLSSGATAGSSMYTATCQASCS

[6] = iv, Terminal elimination half-life T½ i.v.
[7] = sc, Terminal elimination half-life T½ s.c.

Row | Structure (SMILES) | Bioavailability s.c. [1] [%] | Terminal elimination half-life T½ i.v. ([1]; iv, 200 nmol/kg) [h] | Terminal elimination half-life T½ s.c. ([1]; sc, 200 nmol/kg) [h] | bioavailability [2] [%] | half-life [2, 6] [h] | Tmax ([2]; sc) [h] | half-life [2, 7] [h] | EC50 [3] [nM] | EC50 [4] [nM] | EC50 [5] [nM]
1 | CC[C@H](C)[C@H](NC(=O)[C@H](CCCCN)NC(=O)[C@H](CC(=O)O)NC(=O)[C@H](CC(C)C)NC(=O)[C@H](CCC(=O)O)NC(=O)[C@@H](NC(=O)[C@H](CO)NC(=O)[C@H](Cc1ccc(O)cc1)NC(=O)[C@H](CC(=O)O)NC(=O)[C@H](CO)NC(=O)[C@@H](NC(=O)[C@H](Cc1ccccc1)NC(=O)[C@@H](NC(=O)CNC(=O)[C@H](CCC(=O)O)NC(=O)C(C)(C)NC(=O)[C@@H](N)Cc1ccc(O)cc1)[C@@H](C)O)[C@@H](C)CC)[C@@H](C)CC)C(=O)N[C@@H](C)C(=O)N[C@@H](C)C(=O)N[C@@H](CCC(N)=O)C(=O)N[C@@H](CC(=O)O)C(=O)N[C@@H](Cc1ccccc1)C(=O)N[C@H](C(=O)N[C@@H](CC(N)=O)C(=O)N[C@@H](Cc1c[nH]c2ccccc12)C(=O)N[C@@H](CC(C)C)C(=O)N[C@@H](CC(C)C)C(=O)N[C@@H](C)C(=O)NCC(=O)N1CCC[C@H]1C(=O)N[C@@H](CO)C(=O)N[C@@H](CO)C(=O)NCC(=O)N[C@@H](C)C(=O)N1CCC[C@H]1C(=O)N1CCC[C@H]1C(=O)N1CCC[C@H]1C(=O)N[C@@H](CO)C(=O)N[C@@H](CCCCNC(=O)COCCOCCNC(=O)COCCOCCNC(=O)CC[C@H](NC(=O)CCCCCCCCCCCCCCCCCCC(=O)O)C(=O)O)C(N)=O)C(C)C [Compound 16] (H-Y[Aib]EGTFISDYSIELDKIAAQDFVNWLLAGPSSGAPPPSK([AEEA-AEEA-γGlu-C20 diacid])-NH2) | 88 | 19.2 | 16.7 | 81 | 23.3 | 8 | 23.6 | 0.016 | 0.012 | > 10
2 | CC[C@H](C)[C@H](NC(=O)[C@H](CO)NC(=O)[C@H](Cc1ccc(O)cc1)NC(=O)[C@H](CC(=O)O)NC(=O)[C@H](CO)NC(=O)[C@@H](NC(=O)[C@H](Cc1ccccc1)NC(=O)[C@@H](NC(=O)CNC(=O)[C@H](CCC(=O)O)NC(=O)C(C)(C)NC(=O)[C@@H](N)Cc1ccc(O)cc1)[C@@H](C)O)[C@@H](C)CC)C(=O)N[C@@H](CCC(=O)O)C(=O)N[C@@H](CC(C)C)C(=O)N[C@@H](CC(=O)O)C(=O)N[C@@H](CCCCN)C(=O)N[C@@H](CCCCNC(=O)COCCOCCNC(=O)COCCOCCNC(=O)CN1CCN(C(=O)CCCCCCCCCCCCCCCCCCC(=O)O)CC1)C(=O)N[C@@H](C)C(=O)N[C@@H](CCC(N)=O)C(=O)N[C@@H](CCCCN)C(=O)N[C@@H](CCC(=O)O)C(=O)N[C@@H](Cc1ccccc1)C(=O)N[C@H](C(=O)N[C@@H](CCC(=O)O)C(=O)N[C@@H](Cc1c[nH]c2ccccc12)C(=O)N[C@@H](CC(C)C)C(=O)N[C@@H](CC(C)C)C(=O)N[C@@H](C)C(=O)N[C@@H](C)C(=O)NCC(=O)N1CCC[C@H]1C(=O)N[C@@H](CO)C(=O)N[C@@H](CO)C(=O)NCC(=O)N[C@@H](C)C(=O)N1CCC[C@H]1C(=O)N1CCC[C@H]1C(=O)N1CCC[C@H]1C(=O)N[C@@H](CO)C(N)=O)C(C)C [Compound 21] (H-Y[Aib]EGTFISDYSIELDKK([AEEA-AEEA-X1])AQKEFVEWLLAAGPSSGAPPPS-NH2) | – | – | – | 67 | 24.8 | 8 | 21 | 0.007 | 0.006 | > 3
3 | CC[C@H](C)[C@H](NC(=O)[C@H](Cc1ccccc1)NC(=O)[C@H](CC(=O)O)NC(=O)[C@H](CCC(N)=O)NC(=O)[C@H](C)NC(=O)[C@H](C)NC(=O)[C@H](CCCCNC(=O)COCCOCCNC(=O)COCCOCCNC(=O)CN1CCN(C(=O)CCCCCCCCCCCCCCCCCCC(=O)O)CC1)NC(=O)[C@H](CCCCN)NC(=O)[C@H](CC(=O)O)NC(=O)[C@H](CC(C)C)NC(=O)[C@H](CCC(=O)O)NC(=O)[C@@H](NC(=O)[C@H](CO)NC(=O)[C@H](Cc1ccc(O)cc1)NC(=O)[C@H](CC(=O)O)NC(=O)[C@H](CO)NC(=O)[C@@H](NC(=O)[C@H](Cc1ccccc1)NC(=O)[C@@H](NC(=O)CNC(=O)[C@H](CCC(=O)O)NC(=O)C(C)(C)NC(=O)[C@@H](N)Cc1ccc(O)cc1)[C@@H](C)O)[C@@H](C)CC)[C@@H](C)CC)C(=O)N[C@@H](CCC(=O)O)C(=O)N[C@@H](Cc1c[nH]c2ccccc12)C(=O)N[C@@H](CC(C)C)C(=O)N[C@@H](CC(C)C)C(=O)N[C@@H](C)C(=O)NCC(=O)N1CCC[C@H]1C(=O)N[C@@H](CO)C(=O)N[C@@H](CO)C(=O)NCC(=O)N[C@@H](C)C(=O)N1CCC[C@H]1C(=O)N1CCC[C@H]1C(=O)N1CCC[C@H]1C(=O)N[C@@H](CO)C(N)=O [Compound 33] (H-Y[Aib]EGTFISDYSIELDKK([AEEA-AEEA-X1])AAQDFIEWLLAGPSSGAPPPS-NH2) | – | – | – | 78 | 21.7 | 8 | 18.7 | 0.014 | 0.02 | > 10
4 | CC[C@H](C)[C@H](NC(=O)[C@H](CCCCN)NC(=O)[C@H](CC(=O)O)NC(=O)[C@H](CC(C)C)NC(=O)[C@H](CCC(=O)O)NC(=O)[C@H](CCCCNC(=O)COCCOCCNC(=O)COCCOCCNC(=O)CC[C@H](NC(=O)CCCCCCCCCCCCCCCCCCC(=O)O)C(=O)O)NC(=O)[C@H](CO)NC(=O)[C@H](Cc1ccc(O)cc1)NC(=O)[C@H](CC(=O)O)NC(=O)[C@H](CO)NC(=O)[C@@H](NC(=O)[C@H](Cc1ccccc1)NC(=O)[C@@H](NC(=O)CNC(=O)[C@H](CCC(=O)O)NC(=O)C(C)(C)NC(=O)[C@@H](N)Cc1ccc(O)cc1)[C@@H](C)O)[C@@H](C)CC)C(=O)N[C@@H](C)C(=O)N[C@@H](CCC(N)=O)C(=O)N[C@@H](CCCNC(=N)N)C(=O)N[C@@H](C)C(=O)N[C@@H](Cc1ccccc1)C(=O)N[C@H](C(=O)N[C@@H](CCC(=O)O)C(=O)N[C@@H](Cc1c[nH]c2ccccc12)C(=O)N[C@@H](CC(C)C)C(=O)N[C@@H](CC(C)C)C(=O)N[C@@H](C)C(=O)N[C@@H](CCC(N)=O)C(=O)NCC(=O)N1CCC[C@H]1C(=O)N[C@@H](CO)C(=O)N[C@@H](CO)C(=O)NCC(=O)N[C@@H](C)C(=O)N1CCC[C@H]1C(=O)N1CCC[C@H]1C(=O)N1CCC[C@H]1C(=O)N[C@@H](CO)C(N)=O)[C@@H](C)CC [Compound 35] (H-Y[Aib]EGTFISDYSK([AEEA-AEEA-γGlu-C20 diacid])ELDKIAQRAFIEWLLAQGPSSGAPPPS-NH2) | – | – | – | 73 | 14.5 | 4 | 14.5 | 0.008 | 0.011 | > 3
5 | CC[C@H](C)[C@H](NC(=O)[C@H](Cc1ccccc1)NC(=O)[C@H](C)NC(=O)[C@H](CCC(N)=O)NC(=O)[C@H](C)NC(=O)[C@H](C)NC(=O)[C@H](CCCCNC(=O)COCCOCCNC(=O)COCCOCCNC(=O)CN1CCN(C(=O)CCCCCCCCCCCCCCCCCCC(=O)O)CC1)NC(=O)[C@H](CCCCN)NC(=O)[C@H](CC(=O)O)NC(=O)[C@H](CC(C)C)NC(=O)[C@H](CCC(=O)O)NC(=O)[C@@H](NC(=O)[C@H](CO)NC(=O)[C@H](Cc1ccc(O)cc1)NC(=O)[C@H](CC(=O)O)NC(=O)[C@H](CO)NC(=O)[C@@H](NC(=O)[C@H](Cc1ccccc1)NC(=O)[C@@H](NC(=O)CNC(=O)[C@H](CCC(=O)O)NC(=O)C(C)(C)NC(=O)[C@@H](N)Cc1ccc(O)cc1)[C@@H](C)O)[C@@H](C)CC)[C@@H](C)CC)C(=O)N[C@@H](CCC(=O)O)C(=O)N[C@@H](Cc1c[nH]c2ccccc12)C(=O)N[C@@H](CC(C)C)C(=O)N[C@@H](CC(C)C)C(=O)N[C@@H](C)C(=O)N[C@@H](CCC(N)=O)C(=O)NCC(=O)N1CCC[C@H]1C(=O)N[C@@H](CO)C(=O)N[C@@H](CO)C(=O)NCC(=O)N[C@@H](C)C(=O)N1CCC[C@H]1C(=O)N1CCC[C@H]1C(=O)N1CCC[C@H]1C(=O)N[C@@H](CO)C(N)=O [Compound 41] | – | – | – | 70 | 17.6 | 8 | 16.5 | 0.014 | 0.01 | > 10
